Assays:
[1] = test system: Bifidobacterium bifidum DSM 20082; assay: Prebiotic effect: cell growth and metabolism of FGal by Bifidobacterium bifidum; format: cell-based; settings: medium with 3 g/L purified FGal, 37° C., FIG. 8
Description: (§1) To verify the prebiotic effect of FGal, the cell growth of strains such as Bifidobacterium longum subsp. infantis ATCC 15697 and Bifidobacterium bifidum DSM 20082 was monitored. In addition, to conduct a test for the capabilities of pathogenic microorganisms to ferment FGal, the cell growth of strains such as E. coli O1:K1:H7 and Salmonella enterica serovar typhimurium was monitored. At this time, the medium contained 10 g/L of BactoPeptone, 5 g/L of yeast extract, 2 g/L of K2HPO4 (anhydrous), 5 g/L of Na acetate (anhydrous), 2 g/L of NH4 citrate tribasic, 0.2 g/L of Mg sulfate heptahydrate, 0.05 g/L of Mn sulfate, 1 mL/L of Tween 80 (polysorbate 80), 0.5 g/L of cysteine, and 3 g/L of purified FGal, and the strains were cultured at 37° C.

E. coli O1:K1:H7 = assay: Capability of pathogenic microorganism to ferment FGal (E. coli); format: cell-based; settings: medium with 3 g/L purified FGal, 37° C., FIG. 9
Description: as §1

[2] = test system: Bifidobacterium longum subsp. infantis ATCC 15697; assay: Prebiotic effect: cell growth and metabolism of FGal by Bifidobacterium longum subsp. infantis; format: cell-based; settings: medium with 3 g/L purified FGal, 37° C., FIG. 8
Description: as §1

[3] = test system: Salmonella enterica serovar typhimurium; assay: Capability of pathogenic microorganism to ferment FGal (Salmonella); format: cell-based; settings: medium with 3 g/L purified FGal, 37° C., FIG. 9
Description: as §1

hippocampal neurons = hippocampal neurons (brain neural cells) treated with FGal; stated as known; cited from earlier work

C[C@@H]1O[C@@H](O[C@H]2C(O)O[C@H](CO)[C@H](O)[C@@H]2O)[C@@H](O)[C@H](O)[C@@H]1O (stereo partly shown) [FGal, 2′-fucosylgalactose]
metabolism (fermentation) of FGal by the strain [1]: first decomposed FGal into fucose and galactose extracellularly, and then metabolized a small amount of galactose | metabolism (fermentation) of FGal by the strain ([1]; listed as 2-fucosylgalactose): extracellularly decomposes 2-fucosylgalactose into galactose and fucose, and then uses only galactose | metabolism of FGal by pathogenic microorganism (E. coli O1:K1:H7): unable to metabolize | metabolism (fermentation) of FGal by the strain [2]: decomposed FGal into galactose and fucose through intracellular fucosidase and used both | metabolism (fermentation) of FGal by the strain ([2]; listed as 2-fucosylgalactose): decomposes 2-fucosylgalactose into galactose and fucose through intracellular fucosidase and uses both | metabolism of FGal by pathogenic microorganism [3]: unable to metabolize | growth of nerve cells (hippocampal neurons): promotes the growth of nerve cells

Source: patent US11504386B2, “Preparation method for various novel fucosyl oligosaccharides and use thereof” (Korea University Research and Business Foundation, priority 2017, dated 2022)
